According to ChEMBL document CHEMBL1151391, “New Dihydrochalcones and Flavanones From Uvaria Angolensis” (1982):

What was measured:
Assay type in all cases: functional
Staphylococcus aureus = assay: Antimicrobial activity against Staphylococcus aureus
Bacillus subtilis = assay: Antimicrobial activity against Bacillus subtilis
[1] = system: Mycolicibacterium smegmatis; assay: Antimicrobial activity against Mycobacterium smegmatis

| SMILES | Activity (Staphylococcus aureus) [µg/mL] | Activity (Bacillus subtilis) [µg/mL] | Activity [1] [µg/mL] |
| --- | --- | --- | --- |
| COc1c(C)c(O)c(C)c(O)c1C(=O)CCc1ccccc1 [ANGOLETIN] | 12.5 | 0.8 | 6.3 |
| COc1c(C)c(O)c(Cc2ccccc2O)c(O)c1C(=O)CCc1ccccc1 [ANGUVETIN] | 1.5 | 0.2 | 1.5 |
